Where “and” joins values, the source holds several entries; their conditions need not be identical. Equal entries are not always repeated.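 Test compounds were applied to cells in 96-well plates for 48 hours at 5 doses. GI50 marks 50% less growth. The concentration for full growth arrest is given as TGI.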
Columns and labels:
Experiment in all cases: NCI anticancer screen, dose series, 48 h
786-0 renal = tested on: 786-0 renal
A549 NSCLC = tested on: A549 NSCLC
COLO 205 colon = tested on: COLO 205 colon
HL-60(TB) leukemia = tested on: HL-60(TB) leukemia
HT29 colon = tested on: HT29 colon
LOX IMVI melanoma = tested on: LOX IMVI melanoma
OVCAR-3 ovarian = tested on: OVCAR-3 ovarian
OVCAR-5 ovarian = tested on: OVCAR-5 ovarian
SK-MEL-2 melanoma = tested on: SK-MEL-2 melanoma
SNB-75 CNS = tested on: SNB-75 CNS
UACC-257 melanoma = tested on: UACC-257 melanoma
HCC-2998 colon = tested on: HCC-2998 colon
TK-10 renal = tested on: TK-10 renal

| Structure (SMILES) | TGI (786-0 renal) [µM] | TGI (A549 NSCLC) [µM] | TGI (COLO 205 colon) | TGI (HL-60(TB) leukemia) [µM] | TGI (HT29 colon) | TGI (LOX IMVI melanoma) [µM] | TGI (OVCAR-3 ovarian) | TGI (OVCAR-5 ovarian) | TGI (SK-MEL-2 melanoma) [µM] | TGI (SNB-75 CNS) [µM] | TGI (UACC-257 melanoma) [µM] | TGI (HCC-2998 colon) | TGI (TK-10 renal) | GI50 (A549 NSCLC) [µM] | GI50 (COLO 205 colon) [µM] | GI50 (HT29 colon) [µM] | GI50 (OVCAR-5 ovarian) [µM] | GI50 (SK-MEL-2 melanoma) [µM] | GI50 (UACC-257 melanoma) [µM] | GI50 (HL-60(TB) leukemia) [µM] |
| --- | --- | --- | --- | --- | --- | --- | --- | --- | --- | --- | --- | --- | --- | --- | --- | --- | --- | --- | --- | --- |
| CO/N=C(/C)c1cccc(Nc2nc3ccccc3c3[nH]c4ccccc4c23)c1 | 21.5 | 24.7 | 20.3 µM | 53.3 | 11.2 µM | 25 | 20.6 µM | 22.3 µM | 23.5 | 18.6 | 26.5 |  |  |  |  |  |  |  |  |  |
| C=C1C(=O)O[C@H]2C[C@@]3(COC(C)=O)C=COC=C(COC(=O)C(C)C)C3CC12 (some centres undefined) | > 100 | > 100 | > 100 µM | 63.2 | > 100 µM | > 100 | > 100 µM | > 100 µM |  | 67.5 | > 100 | > 100 µM | > 100 µM |  |  |  |  |  |  |  |
| Cc1nc(CC#N)n[nH]1 | > 100 | > 100 | > 100 µM |  | > 100 µM | > 100 | > 100 µM | > 100 µM | > 100 | > 100 | > 100 | > 100 µM | > 100 µM |  |  |  |  |  |  |  |
| O=C(O)CCC(=O)c1ccc2c(c1)C(C(=O)O)CC2 (centres undefined) | > 100 | > 100 | > 100 µM | > 100 | > 100 µM | > 100 | > 100 µM | > 100 µM | > 100 |  | > 100 | > 100 µM | > 100 µM |  |  |  |  |  |  |  |
| CS(=O)(=O)c1nc(-c2cc3c(c(S(C)(=O)=O)n2)CCCC3)cc2c1CCCCC2 | > 100 | > 100 | > 100 µM | > 100 | > 100 µM |  | > 100 µM | > 100 µM | > 100 | > 100 | > 100 |  | > 100 µM |  |  |  |  |  |  |  |
| CCOC(=O)c1[nH]c(Br)c(-c2ccc(OC)c(OC)c2)c1Br | 11.7 | 23 | 1.07 µM | 1.99 | 0.0667 µM and 0.308 µM |  |  | 63.3 µM | 20.2 | 32.8 | 22.3 |  | 55.2 µM | 0.0564 | 0.02 | 0.0258 | 20.3 | 0.0152 | 10 |  |
| COC(=O)CCC1=C(CC(=O)OC)C(C)(OC)N=C1NC(=O)OCc1ccccc1 (centres undefined) | > 100 | > 100 | > 100 µM |  | > 100 µM | > 100 |  | > 100 µM | > 100 | > 100 | > 100 | > 100 µM | > 100 µM |  |  |  |  |  |  |  |
| NC1=C(NC(=O)Cc2ccccc2F)C(=O)c2ccccc2C1=O | 98.2 | > 100 | > 100 µM | > 100 | > 100 µM |  | 66.9 µM |  | > 100 | 62.6 | > 100 | > 100 µM | 69.7 µM |  |  |  |  |  |  |  |
| CN(C(=O)Cc1ccccc1)n1cnn(CC(=O)OC(C)(C)C)c1=S | > 10 | > 10 | > 10 µM |  | > 10 µM | > 10 | > 10 µM | > 10 µM |  | > 10 | > 10 | > 10 µM | > 10 µM |  |  |  |  |  |  |  |
| O=C1c2ccccc2C(=O)c2cc(N=Nc3c(O)ccc4ccccc34)ccc21 | > 100 | > 100 | > 100 µM |  | > 100 µM | > 100 | > 100 µM | > 100 µM | > 100 | > 100 | > 100 |  | > 100 µM |  |  |  |  |  |  |  |
| O=CNNC(=O)Nc1cccc2ccccc12 | > 100 | > 100 | > 100 µM | > 100 | > 100 µM |  |  | > 100 µM |  | > 100 | > 100 | > 100 µM | > 100 µM |  |  |  |  |  |  |  |
| N#CN/C(N)=N/C/N=C(\N)NC#N | 60.8 | > 100 | > 100 µM | > 100 | > 100 µM |  | > 100 µM | > 100 µM | > 100 | > 100 | > 100 | > 100 µM | > 100 µM |  |  |  |  |  |  |  |
| CCOC(=O)c1[nH]c(-c2[nH]c(-c3[nH]c(-c4[nH]c(C(=O)OCC)c(C)c4C(=O)OCC)c(C(=O)OCC)c3C)c(C)c2C(=O)OCC)c(C(=O)OCC)c1C | > 100 | > 100 | > 100 µM | > 100 | > 100 µM | > 100 | > 100 µM | > 100 µM | > 100 |  | > 100 | > 100 µM | > 100 µM |  |  |  |  |  |  |  |
| COc1ccc(C(c2c(O)c3ccccc3n(-c3ccccc3)c2=O)c2c(O)c3ccccc3n(-c3ccccc3)c2=O)cc1 | > 100 | > 100 | > 100 µM |  |  | > 100 | > 100 µM | > 100 µM | > 100 |  |  | > 100 µM | > 100 µM |  |  |  |  |  |  |  |
| CN(Cc1cnc2nc(N)nc(N)c2n1)c1ccc(C(=O)N[C@@H](CCC(=O)O)C(=O)O)cc1 | > 250 | > 250 | 249 µM and > 250 µM | 178 | 240 µM and > 250 µM | > 250 | 217 µM and > 250 µM | 207 µM and > 250 µM | > 250 |  | > 237 | 191 µM and > 250 µM | 230 µM and > 250 µM |  |  |  |  |  | 1.89 | 0.0259 |
| Cc1cnc2sn(-c3ccc([N+](=O)[O-])cc3)c(=O)c2c1 | > 100 | > 100 | > 100 µM |  | > 100 µM | > 100 | > 100 µM | > 100 µM | > 100 | 51.6 |  | > 100 µM | > 100 µM |  |  |  |  |  |  |  |
| C/C=C(/I)CBr | 30.8 | 66.7 | 28.2 µM | 20.5 |  | 36.2 |  |  | 28.4 |  |  | 29.4 µM |  |  |  |  |  |  |  |  |
| Cc1ccc(SC2C(=O)C3CC(OCc4ccccc4)C2(C)C3(C)C)cc1 (centres undefined) | > 100 | > 100 |  | > 100 | > 100 µM |  | > 100 µM | > 100 µM | > 100 |  |  | > 100 µM | > 100 µM |  |  |  |  |  |  |  |
| O=C(NCCN1CCOCC1)c1cn2c(ccc3sc4ccccc4c(=O)c32)n1 | 40 | > 100 | > 100 µM | 36.3 | 25.6 µM | 47.4 | > 100 µM | > 100 µM |  | 59.4 | > 100 | 54.1 µM | > 100 µM |  |  |  |  |  |  |  |

Source: PubChem BioAssay (NCI)
